From patent publication US8138191B2, “Inhibitor compounds and cancer treatment methods” (Critical Outcome Technologies Inc., priority 2007, dated 2012)
Where two headings read alike, the source gives them in different places.

Assays:
Standard lab mice = assay: Escalating dose acute toxicity study in mice; conditions: 4, 8, 16 mg/kg alternate day IP, 28 days
From the text: Mice were given alternate day IP injections for 28 days. […] Blood and tissue samples were harvested for histopathology.

U87 glioblastoma cells = assay: Proliferation of U87 glioblastoma cells (alamarBlue), single agents and combinations with temsirolimus or rapamycin; format: cell-based; conditions: Homo sapiens; U87, single agent, triplicate experiments
Method: In vitro IC50 values were obtained for combinations of compounds of the present invention with temsirolimus or rapamycin in the treatment of U87 glioblastoma cells. Temsirolimus and rapamycin both inhibit proliferation of human U87 glioblastoma cells, as single agents (FIG. 14). […] Both inhibit proliferation of these cells with increasing concentration.
Temsirolimus was provided in liquid form from the London Regional Cancer Program (LRCP) Pharmacy. COTI-219 was prepared as a 50 mM stock in DMSO, then diluted to 10 mM in DMSO followed by serial dilution water for addition to medium overlaying cells. Cells were incubated with temsirolimus in combination with COTI-219 for 4 days (in wells of 96 well plates) followed by analysis of live cell density using the fluorescent vital stain alamarBlue.
All data points are means±SEM (n=6). Error bars are, in every case, smaller than the size of the symbol.
Rapamycin was prepared by crushing and extracting a tablet (supplied from the LRCP Pharmacy) with DMSO, followed by centrifugation to remove particulate matter. COTI-219 was prepared as a 50 mM stock in DMSO, then diluted to 10 mM in DMSO followed by serial dilution water for addition to medium overlaying cells. […]

[1] = system: PI3K activity in SHP77 cells; assay: PI3-K activity (PIP3 detection, Echelon kit), SHP77; format: cell-based, human; conditions: SHP77, 50 μM inhibitor + 250 nM COTI-2
From the text: As a negative control, an equivalent volume of DMSO was utilized. […] To measure PI3-K activity, a commercial kit was purchased from Echelon. Following the procedures recommended by the manufacturer, membrane lipids were extracted in several steps and the resulting PIP3 was immobilized to nitrocellulose and measured by its interaction with a PH-domain containing protein and HRP-conjugated antibody supplied with the kit. As an additional control in these experiments, the specific PI3-K inhibitor, LY294002 was used to inhibit PI3-K and thus stop PIP3 production.

SHP 77 cells = assay: Proliferation with anti-cancer agents plus COTI-2, SHP 77; format: cell-based, human; conditions: SHP 77
DMS114 cells = assay: Proliferation with anti-cancer agents plus COTI-2, DMS114; format: cell-based, human; conditions: DMS114
[2] = system: SHP-77 human SCLC cell line tumor xenografts; assay: Nude mouse model of human SCLC, SHP-77 xenografts; format: in vivo; conditions: for average number of tumors per injection site / mean tumor volume: IP on alternate days from Day 3, 31 days
Method: The nude mouse model of human SCLC was used to evaluate the in vivo efficacy of compounds of the present invention in comparison with several known chemotherapeutic agents. Nude mice were obtained form the National Cancer Institute and the SHP-77 human SCLC cell line was chosen for metastatic tumor xenografts. The control group consisted of 10 animals, each of which were administered bilateral thigh injections of a prescribed volume of tumor cells. There were 6 treatment groups, each containing 5 animals: COTI-2, COTI-4, COTI-219, Taxotere® (docetaxel), Cisplatin® (cis-diamminedichloroplatinum) and Tarceva® (erlotinib) The therapeutic agent was administered by intraperitoneal (IP) injection on alternate days beginning on Day 3 post tumor cell injection. Each animal in a treatment group was administered bilateral thigh injections with the same prescribed volume of tumor cells as the control animals. Treatment continued for 31 days, following which the animals were euthanized and tissues were collected for subsequent analysis.

DMS153 = assay: Resistance testing over 5 generations, DMS153; format: cell-based, human; conditions: DMS153, 5 generations
Method: (§1) In order to evaluate the induction of resistance in vitro, compounds according to the invention were tested in head to head comparisons against conventional therapeutic agents Cisplatin® and Taxotere®. The compound designated COTI-4 (which is the subject of Applicant's co-pending U.S. provisional patent application entitled “Composition and Method for Treatment” filed Dec. 26, 2007) was also tested. The structure for COTI-4 is:
(§2) IC50 values were obtained using methods known to persons skilled in the art with two different human SCLC cell lines (DMS153 and SHP77) obtained from the National Cancer Institute. […] The procedure was repeated for a total of 5 generations. Emerging resistance was identified by increasing IC50 values in successive generations.

SHP77 = assay: Resistance testing over 5 generations, SHP77; format: cell-based, human; conditions: SHP77, 5 generations
Method: as §1, §2

[3] = system: NCI/DTP 60 cell line panel; conditions: NOT including DMS114 and SHP-77; cited from earlier work
U87 = assay: IC50 human glioma/astrocytoma cell lines (alamar Blue), U87
Method: (§9) Cell lines were obtained from the Human Tissue Culture Collection (ATCC), grown and maintained under ATCC-specified conditions, and tested to ensure viability and lack of contaminating mycoplasma and common viruses. […] A viability stain (alamar Blue) was added to cells after 4-7 days of drug exposure (approximately 4 doublings of control cells; maximum cell density in wells approximately 80%), and assayed for total cellular metabolic activity (a function of population density of live cells) by absorbance.

SNB-19 = assay: IC50 human glioma/astrocytoma cell lines (alamar Blue), SNB-19
Method: as §9

H292 = assay: CellTiter-Blue growth inhibition, single agents and combinations, H292; format: cell-based; conditions: Homo sapiens, NCI-H292; H292, NSCLC, EGFR - WT, 72 h; read-out: Mean IC50, single agent
Method: (§3) The stock concentration was further diluted to 1 mM and added to a drug plate. […] Following dilution, 2 μl of test agent was transferred to the corresponding wells of a cell-containing 96-well plate with 198 μl of growth media. Tarceva® (erlotinib) was supplied by LC Labs (Woburn, Mass.).
(§4) Viable cell numbers were quantified by the CellTiter-Blue® cell viability assay, which measures the conversion of the indicator dye (resazurin) to resorufin, an indicator of cell viability. Experiments were repeated at least twice with the same concentrations to determine growth inhibitory activity.
(§5) The CI, a numerical value calculated as described in equation A, also provides a quantitative measure of the extent of drug interaction. A CI of less than, equal to, and more than 1 indicates synergy, additivity, and antagonism, respectively. CI=(CAx/ICx,A)+(CB,x/ICx,B) Equation A: Where CA,x and CB,x, are the concentrations of drug A and drug B used in combination to achieve x % drug effect. ICx,A and ICx,B are the concentrations for single agents to achieve the same effect.

H1975 = assay: CellTiter-Blue growth inhibition, single agents and combinations, H1975; format: cell-based; conditions: Homo sapiens, NCI-H1975; H1975, NSCLC, EGFR - MUT, 72 h; read-out: Mean IC50, single agent
Method: as §3, §4, §5

COLO-205 = assay: Tumor cell proliferation, single agents and combinations, COLO-205; format: cell-based, human; conditions: for IC50: Homo sapiens
Method: (§6) The 3 cell lines were treated as follows:
(§7) Day 1: Cells were plated in 96-well flat bottom plates (VWR, Mississauga, ON, Canada) and allowed to adhere overnight.
(§8) All treated and control cells were, therefore, exposed to a 1% DMSO concentration plus the desired concentration of COTI-2.
as §5

HCT-15 = assay: Tumor cell proliferation, single agents and combinations, HCT-15; format: cell-based; conditions: Homo sapiens; HCT-15, Colon, KRAS - MUT; read-out: Mean IC50, single agent
Method: as §6, §7, §8, §5

SW620 = assay: Tumor cell proliferation, single agents and combinations, SW620; format: cell-based, human; conditions: for IC50: Homo sapiens
Method: as §6, §7, §8, §5

In the case of CN1CCN(C(=S)NN=C(c2ccccn2)c2ccccn2)CC1 [COTI-4], the “acute toxicity / adverse effects” value (Standard lab mice) is reported as “No evidence of acute toxicity” and the weight loss (Standard lab mice) is reported as “None of the drugs produced any weight loss”.
CO[C@H]1C[C@@H]2CC[C@@H](C)[C@@](O)(O2)C(=O)C(=O)N2CCCC[C@H]2C(=O)O[C@H]([C@H](C)C[C@@H]2CC[C@@H](O)[C@H](OC)C2)CC(=O)[C@H](C)/C=C(\C)[C@@H](O)[C@@H](OC)C(=O)[C@H](C)C[C@H](C)/C=C/C=C/C=C/1C [Rapamycin, rapamycin] gave an IC50 (U87 glioblastoma cells) of 9.9 µM.
For O=c1cc(N2CCOCC2)oc2c(-c3ccccc3)cccc12 [LY294002, reference compound], the “PIP3 detected in the presence of the PI3K-inhibitor” value [1] was “approximately 14 pmol”.
For CCC1=C[C@@H]2CN(C1)Cc1c([nH]c3ccccc13)[C@@](C(=O)OC)(c1cc3c(cc1OC)N(C)[C@H]1[C@@](O)(C(=O)OC)[C@H](OC(C)=O)[C@]4(CC)C=CCN5CC[C@]31[C@@H]54)C2 [Vinorelbine, reference compound], the “effect of combination with COTI-2 on proliferation” value (“effect of combination” for short) (SHP 77 cells) was “additive effect” and the “effect of combination” value (DMS114 cells) was “additive effect”.
With CC(=O)O[C@@]12CO[C@@H]1C[C@H](O)[C@@]1(C)C(=O)[C@H](O)C3=C(C)[C@@H](OC(=O)[C@H](O)[C@@H](NC(=O)OC(C)(C)C)c4ccccc4)C[C@@](O)([C@@H](OC(=O)c4ccccc4)[C@H]21)C3(C)C [Taxotere®, docetaxel, reference compound] the “average number of tumors per injection site” value [2] was 0.48, the mean tumor volume [2] was 183 mm^3 and the “emerging resistance: ratio of IC50 to IC50 of parental generation” value (from here on “emerging resistance: ratio of IC50”) (DMS153) was “significant increases in IC50”. For the same compound, the “emerging resistance: ratio of IC50” value (SHP77) was “significant increases in IC50”.
For COc1ccc(NC(=S)N=Nc2c(O)[nH]c3c(Cl)cc(Cl)cc23)cc1 [NSC73306], the “Mean Over NCI/DTP 60 cell line panel (LogGI50)” value [3] is listed as −4.9.
With N.N.[Cl][Pt][Cl] [Cisplatin, cis-diamminedichloroplatinum, reference compound] the “average number of tumors per injection site” value [2] was 0.48, the mean tumor volume [2] was 132+/−26 mm^3 and the “emerging resistance: ratio of IC50” value (DMS153) was “significant increases in IC50”. The “emerging resistance: ratio of IC50” value (SHP77) was “significant increases in IC50”, the IC50 (U87; U87, 4-7 days) was 0.49 µM and the IC50 (SNB-19; SNB-19, 4-7 days) was 0.87 µM.
In the case of C=CCNC(=S)N=Nc1c(O)n(CN2CCOCC2)c2ccc([N+](=O)[O-])cc12 [NSC716768], the “Mean Over NCI/DTP 60 cell line panel (LogGI50)” value [3] is listed as −4.7.
Compound O=NN(CCCl)C(=O)NCCCl [BCNU, 1,3-Bis(2-chloroethyl)-1-nitrosourea, reference compound] has an IC50 (U87; Homo sapiens, U-87 MG) of 1.52 µM and an IC50 (SNB-19; Homo sapiens, SNB-19) of 2.25 µM.
For C#Cc1cccc(Nc2ncnc3cc(OCCOC)c(OCCOC)cc23)c1 [Tarceva®, erlotinib], the “survival of treated animals to study conclusion” value ([2]; 31 days) was “died before study conclusion”, the IC50 (H292) was 0.02 µM and the IC50 (H1975) was over 100 µM. For the same compound, the “highest concentration that did not significantly affect growth” value (COLO-205; COLO 205) was 10 µM, the IC50 (COLO-205; 96 h, read-out: concentration to reduce growth by 50% (IC50), COLO-205, 4 day assessment) was over 10 µM and the IC50 (COLO-205; COLO-205, Colon, KRAS - WT, read-out: Mean IC50, single agent) was over 10 µM. For the same compound, the IC50 (HCT-15) was 5.1 µM, the IC50 (SW620; SW-620, 96 h, read-out: concentration to reduce growth by 50% (IC50), SW620, 4 day assessment) was over 10 µM and the IC50 (SW620; SW-620, SW620, Colon, KRAS - MUT, read-out: Mean IC50, single agent) was over 10 µM. For the same compound, the “highest concentration that did not significantly affect growth” value (SW620; SW620) was 5 µM.
For Nc1ccn([C@@H]2O[C@H](CO)[C@@H](O)C2(F)F)c(=O)n1 [Gemcitabine, reference compound], the “effect of combination” value (SHP 77 cells) was “additive effect” and the “effect of combination” value (DMS114 cells) was “additive effect”.
Work on CO[C@H]1C[C@@H]2CC[C@@H](C)[C@@](O)(O2)C(=O)C(=O)N2CCCC[C@H]2C(=O)O[C@H]([C@H](C)C[C@@H]2CC[C@@H](OC(=O)C(C)(CO)CO)[C@H](OC)C2)CC(=O)[C@H](C)/C=C(\C)[C@@H](O)[C@@H](OC)C(=O)[C@H](C)C[C@H](C)/C=C/C=C/C=C/1C [Temsirolimus, temsirolimus] yielded an IC50 (U87 glioblastoma cells) of 3.6 µM.
In the case of Oc1[nH]c2ccccc2c1N=NC(=S)N1CCCCCC1 [NSC668496], the “Mean Over NCI/DTP 60 cell line panel (LogGI50)” value [3] is listed as −6.1.
